Measurements as given in ChEMBL document CHEMBL1275464, “Characterization of the carbapenem-hydrolyzing oxacillinase oxa-58 in an Acinetobacter genospecies 3 clinical isolate” (2008).
≈ marks a conversion by molar mass, not a printed value.

Experiments:
Type in all cases: functional
Acinetobacter baumannii [1] = assay: Antimicrobial activity against Acinetobacter baumannii isolate Ac058 expressing beta-lactamase Oxa-58 by broth microdilution method
Acinetobacter pittii = assay: Antimicrobial activity against Acinetobacter genospecies 3 isolate Ac057 expressing beta-lactamase Oxa-58 by broth microdilution method
Acinetobacter baumannii [2] = assay: Antimicrobial activity against Acinetobacter baumannii isolate Ac058 expressing beta-lactamase Oxa-58 by broth microdilution method in presence of beta-lactamase inhibitor Sulbactam

Compound	MIC (Acinetobacter baumannii [1])	MIC (Acinetobacter pittii)	MIC (Acinetobacter baumannii [2])
NCC[C@H](O)C(=O)N[C@@H]1C[C@H](N)[C@@H](O[C@H]2O[C@H](CN)[C@@H](O)[C@H](O)[C@H]2O)[C@H](O)[C@H]1O[C@H]1O[C@H](CO)[C@@H](O)[C@H](N)[C@H]1O [AMIKACIN]	256 µg/mL (≈ 437 µM)	0.5 µg/mL (≈ 0.854 µM)	–
CC1(C)S[C@@H]2[C@H](NC(=O)[C@H](N)c3ccccc3)C(=O)N2[C@H]1C(=O)O [AMPICILLIN]	256 µg/mL (≈ 733 µM)	256 µg/mL (≈ 733 µM)	64 µg/mL
CC[C@H]1OC(=O)[C@H](C)[C@@H](O[C@H]2C[C@@](C)(OC)[C@@H](O)[C@H](C)O2)[C@H](C)[C@@H](O[C@@H]2O[C@H](C)C[C@H](N(C)C)[C@H]2O)[C@](C)(O)C[C@@H](C)CN(C)[C@H](C)[C@@H](O)[C@]1(C)O [AZITHROMYCIN]	128 µg/mL (≈ 171 µM)	4 µg/mL (≈ 5.34 µM)	–
CO/N=C(\C(=O)N[C@@H]1C(=O)N2C(C(=O)[O-])=C(C[N+]3(C)CCCC3)CS[C@H]12)c1csc(N)n1 [CEFEPIME]	64 µg/mL (≈ 133 µM)	8 µg/mL (≈ 16.6 µM)	–
CO[C@@]1(NC(=O)Cc2cccs2)C(=O)N2C(C(=O)O)=C(COC(N)=O)CS[C@@H]21 [CEFOXITIN]	256 µg/mL (≈ 599 µM)	256 µg/mL (≈ 599 µM)	–
CC(C)(O/N=C(\C(=O)N[C@@H]1C(=O)N2C(C(=O)[O-])=C(C[n+]3ccccc3)CS[C@H]12)c1csc(N)n1)C(=O)O [CEFTAZIDIME]	256 µg/mL (≈ 468 µM)	8 µg/mL (≈ 14.6 µM)	–
CC(=O)OCC1=C(C(=O)O)N2C(=O)[C@@H](NC(=O)Cc3cccs3)[C@H]2SC1 [CEPHALOTHIN]	256 µg/mL (≈ 646 µM)	256 µg/mL (≈ 646 µM)	–
O=C(O)c1cn(C2CC2)c2cc(N3CCNCC3)c(F)cc2c1=O [CIPROFLOXACIN]	–	32 µg/mL (≈ 96.6 µM)	–
C[C@H]1c2cccc(O)c2C(=O)C2=C(O)[C@]3(O)C(=O)C(C(N)=O)=C(O)[C@@H](N(C)C)[C@@H]3[C@@H](O)[C@@H]21.O [DOXYCYCLINE]	16 µg/mL	< 0.5 µg/mL	–
C[C@@H](O)[C@H]1C(=O)N2C(C(=O)O)=C(SCCNC=N)C[C@H]12 [IMIPENEM ANHYDROUS]	> 32 µg/mL	> 32 µg/mL	–
C[C@@H](O)[C@H]1C(=O)N2C(C(=O)O)=C(S[C@@H]3CN[C@H](C(=O)N(C)C)C3)[C@H](C)[C@H]12 [MEROPENEM]	8 µg/mL (≈ 20.9 µM)	8 µg/mL (≈ 20.9 µM)	–
CCN1CCN(C(=O)N[C@@H](C(=O)N[C@@H]2C(=O)N3[C@@H]2SC(C)(C)[C@@H]3C(=O)O)c2ccccc2)C(=O)C1=O [PIPERACILLIN]	512 µg/mL (≈ 989 µM)	512 µg/mL (≈ 989 µM)	–
CO[C@H]1/C=C/O[C@@]2(C)Oc3c(C)c(O)c4c(O)c(c(/C=N/N5CCN(C)CC5)c(O)c4c3C2=O)NC(=O)/C(C)=C\C=C\[C@H](C)[C@H](O)[C@@H](C)[C@@H](O)[C@@H](C)[C@H](OC(C)=O)[C@@H]1C [RIFAMPIN]	2 µg/mL (≈ 2.43 µM)	2 µg/mL (≈ 2.43 µM)	–
NC[C@H]1O[C@H](O[C@H]2[C@H](O)[C@@H](O[C@H]3O[C@H](CO)[C@@H](O)[C@H](N)[C@H]3O)[C@H](N)C[C@@H]2N)[C@H](N)C[C@@H]1O [TOBRAMYCIN]	64 µg/mL (≈ 137 µM)	0.25 µg/mL (≈ 0.535 µM)	–
GENTAMICIN	16 µg/mL	< 1 µg/mL	–
POLYMYXIN B	1 µg/mL	2 µg/mL	–
